Source: ChEMBL document CHEMBL4190215, “Ochracenes A-I, Humulane-Derived Sesquiterpenoids from the Antarctic Fungus Aspergillus ochraceopetaliformis” (J Nat Prod, 2017)
Activity calls are given as the source filed them.

How the values were obtained:
[1] = system: U-937; experiment: Cytotoxicity against human U937 cells assessed as reduction in cell viability after 72 hrs by CCK-8 assay; format: functional, cell-based; conditions: U-937, 72 h
[2] = system: HT-29; experiment: Cytotoxicity against human HT-29 cells assessed as reduction in cell viability after 72 hrs by CCK-8 assay; format: functional, cell-based; conditions: HT-29, 72 h
[3] = system: Influenza A virus; experiment: Antiviral activity against influenza A virus H1N1 assessed as inhibition of virus-induced cytopathic effect up to 100 uM after 48 hrs by crystal violet staining based assay; format: functional, organism-based
[4] = system: Influenza A virus; experiment: Antiviral activity against influenza A virus H3N2 assessed as inhibition of virus-induced cytopathic effect up to 100 uM after 48 hrs by crystal violet staining based assay; format: functional, organism-based
[5] = system: K562; experiment: Cytotoxicity against human K562 cells assessed as reduction in cell viability up to 100 uM after 72 hrs by CCK-8 assay; format: functional, cell-based
[6] = system: MCF7; experiment: Cytotoxicity against human MCF7 cells assessed as reduction in cell viability up to 100 uM after 72 hrs by CCK-8 assay; format: functional, cell-based
[7] = system: A549; experiment: Cytotoxicity against human A549 cells assessed as reduction in cell viability up to 100 uM after 72 hrs by CCK-8 assay; format: functional, cell-based
[8] = system: U-937; experiment: Cytotoxicity against human U937 cells assessed as reduction in cell viability up to 100 uM after 72 hrs by CCK-8 assay; format: functional, cell-based
[9] = system: HeLa; experiment: Cytotoxicity against human HeLa cells assessed as reduction in cell viability up to 100 uM after 72 hrs by CCK-8 assay; format: functional, cell-based
[10] = system: HL-60; experiment: Cytotoxicity against human HL60 cells assessed as reduction in cell viability up to 100 uM after 72 hrs by CCK-8 assay; format: functional, cell-based
[11] = system: HT-29; experiment: Cytotoxicity against human HT-29 cells assessed as reduction in cell viability up to 100 uM after 72 hrs by CCK-8 assay; format: functional, cell-based
[12] = system: DU-145; experiment: Cytotoxicity against human DU145 cells assessed as reduction in cell viability up to 100 uM after 72 hrs by CCK-8 assay; format: functional, cell-based
[13] = system: RAW264.7; experiment: Inhibition of LPS-induced NO production in mouse RAW264.7 cells after 24 hrs by Griess assay; format: functional, cell-based; conditions: RAW264.7, 24 h

CC(=O)O[C@H]1C(=O)[C@@]2(C)[C@H]([C@H](OC(=O)c3ccccc3)[C@]3(O)C[C@H](OC(=O)[C@H](O)[C@@H](NC(=O)c4ccccc4)c4ccccc4)C(C)=C1C3(C)C)[C@]1(OC(C)=O)CO[C@@H]1C[C@@H]2O [PACLITAXEL]
3 nM: IC50 [2]
1.7 nM: IC50 [1]

C[C@H]1CC[C@@]2(C)C=CC(=O)C=C2C=C1C(=O)O
inactive: inhibition [3] | inhibition [4] | Activity [5] | Activity [6] | Activity [7] | Activity [8] | Activity [9] | Activity [10] | Activity [11] | Activity [12]

C[C@H]1CC[C@@]2(C)C=CC(=O)C=C2C=C1CO
inactive: inhibition [3] | inhibition [4] | Activity [5] | Activity [6] | Activity [7] | Activity [8] | Activity [9] | Activity [10] | Activity [11] | Activity [12]

CC1=CC[C@@]2(C)[C@H](O)CC[C@@H](C(=O)O)[C@@H]2C=C1C
inactive: inhibition [3] | inhibition [4] | Activity [5] | Activity [6] | Activity [7] | Activity [8] | Activity [9] | Activity [10] | Activity [11] | Activity [12]

COC(OC)C1=CC2=CC(=O)C=C[C@]2(C)CC[C@@H]1C
inactive: inhibition [3] | inhibition [4] | Activity [5] | Activity [6] | Activity [7] | Activity [8] | Activity [9] | Activity [10] | Activity [11] | Activity [12]

CC1=CC([C@@H](CCCO)C(=O)O)=C(C)CC[C@@H]1C
inactive: inhibition [3] | inhibition [4] | Activity [5] | Activity [6] | Activity [7] | Activity [8] | Activity [9] | Activity [10] | Activity [11] | Activity [12]
14600 nM: IC50 [13]

CC1=CC([C@@H](CCC(=O)O)C(=O)O)=C(C)CC[C@@H]1C
18300 nM: IC50 [13]
inactive: inhibition [3] | inhibition [4] | Activity [5] | Activity [6] | Activity [7] | Activity [8] | Activity [9] | Activity [10] | Activity [11] | Activity [12]

C[C@H]1CC[C@@]2(C)C=CC(=O)C=C2C=C1C=O
inactive: inhibition [3] | inhibition [4] | Activity [5] | Activity [6] | Activity [7] | Activity [8] | Activity [9] | Activity [10] | Activity [11] | Activity [12]

C[C@@H]1C[C@H]2[C@@H]3CCC4=CC(=O)C=C[C@]4(C)[C@@]3(F)[C@@H](O)C[C@]2(C)[C@@]1(O)C(=O)CO [DEXAMETHASONE]
2500 nM: IC50 [13]

C[C@H]1CC[C@]2(C)C(=CCC[C@H]2O)C=C1CO
inactive: inhibition [3] | inhibition [4] | Activity [5] | Activity [6] | Activity [7] | Activity [8] | Activity [9] | Activity [10] | Activity [11] | Activity [12]

C[C@H]1CC[C@]2(C)C(=CCC[C@H]2O)C=C1C(=O)O
inactive: inhibition [3] | inhibition [4] | Activity [5] | Activity [6] | Activity [7] | Activity [8] | Activity [9] | Activity [10] | Activity [11] | Activity [12]
